Data published in the supplement of paper PMC10627819.

How the values were obtained:
[1] = system: B. subtilis 168; experiment: Bliss interaction score (quartile over a dose matrix) (fitness difference); higher = more antagonism (negative = synergy)
Procedure, shortened: (§1)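 At entry into stationary phase, OD595 was recorded and divided by the robust mean of the no-drug wells on that plate, with any value above 1 set to 1. This gives the fitness measure used throughout. Single-drug fitness was inferred from combination data, and the Bliss score, observed minus product-expected fitness, is shown as quartiles across technical, biological and donor/recipient replicates.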

[2] = system: S. aureus Newman; experiment: as above
Procedure, shortened: as §1

[3] = system: S. pneumoniae D39V; experiment: as above
Procedure, shortened: as §1

[4] = system: S. aureus DSM 20231; experiment: as above
Procedure, shortened: as §1

[5] = system: B. subtilis 168; experiment: fitness (endpoint OD595 vs no drug) (fraction); higher = more growth
Procedure, shortened: (§2)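 Volumes were 30 µl per well, or 55 µl for S. pneumoniae, in 384-well plates inoculated at OD595 0.01. Media were TSB, LB Lennox or CY at 37 °C, and OD595 was read every 30 min for 14 h with first-reading background subtraction. Fitness is the ratio of optical density at stationary-phase entry to the robust mean of no-drug controls. That ratio is capped at 1.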

[6] = system: S. aureus Newman; experiment: as above
Procedure, shortened: as §2

[7] = system: S. pneumoniae D39V; experiment: as above
Procedure, shortened: as §2
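Wherever Bliss interaction score (quartile over a dose matrix) is given: first quartile when negative (synergy) and third quartile when positive (antagonism).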

COc1ccc(C[C@H](N)C(=O)N[C@H]2[C@@H](O)[C@H](n3cnc4c(N(C)C)ncnc43)O[C@@H]2CO)cc1 [Puromycin] + CN(C)c1cc(NC(=O)CNC(C)(C)C)c(O)c2c1C[C@H]1C[C@H]3[C@H](N(C)C)C(O)=C(C(N)=O)C(=O)[C@@]3(O)C(O)=C1C2=O [Tigecycline]
Details	Bliss interaction score
[1]	-0.044
[2]	0.0585
[3]	0.062
[4]	0.0709

fitness
Details	first compound 0.39 µg/mL	first compound 0.78 µg/mL	first compound 1 µg/mL	first compound 1.56 µg/mL	first compound 2 µg/mL	first compound 4 µg/mL
[5], partner 0.039 µg/mL	0.945	0.976	–	0.953	–	–
[5], partner 0.078 µg/mL	0.945	0.925	–	0.958	–	–
[5], partner 0.156 µg/mL	0.895	0.964	–	0.924	–	–
[6], partner 0.039 µg/mL	≥ 1	0.999	–	0.985	–	–
[6], partner 0.078 µg/mL	≥ 1	0.995	–	0.995	–	–
[6], partner 0.156 µg/mL	≥ 1	0.991	–	≥ 1	–	–
[7], partner 0.65 µg/mL	–	–	0.921	–	0.892	0.723
[7], partner 1.3 µg/mL	–	–	0.927	–	0.931	0.71
[7], partner 2.6 µg/mL	–	–	≥ 1	–	0.941	0.797

fitness, [5], one replicate
Details	first compound 0.39 µg/mL	first compound 0.78 µg/mL	first compound 1.56 µg/mL
partner 0.125 µg/mL	≥ 1	0.997	≥ 1
partner 0.25 µg/mL	0.862	0.938	0.92
partner 0.5 µg/mL	0.908	0.893	0.903

COc1ccc(C[C@H](N)C(=O)N[C@H]2[C@@H](O)[C@H](n3cnc4c(N(C)C)ncnc43)O[C@@H]2CO)cc1 [Puromycin] + CN[C@@H]1[C@H](O[C@H]2[C@H](O[C@H]3[C@H](O)[C@@H](O)[C@H](N=C(N)N)[C@@H](O)[C@@H]3N=C(N)N)O[C@@H](C)[C@]2(O)C=O)O[C@@H](CO)[C@H](O)[C@H]1O [Streptomycin]
Details	Bliss interaction score
[1]	-0.226
[2]	0.0431
[3]	-0.0971
[4]	-0.193

fitness
Details	first compound 0.39 µg/mL	first compound 0.78 µg/mL	first compound 1 µg/mL	first compound 1.56 µg/mL	first compound 2 µg/mL	first compound 4 µg/mL
[5], partner 2 µg/mL	0.908	0.878	–	0.796	–	–
[5], partner 4 µg/mL	0.27	0.143	–	0.106	–	–
[5], partner 8 µg/mL	0.0282	0.0233	–	0.0357	–	–
[6], partner 1 µg/mL	≥ 1	0.968	–	0.991	–	–
[6], partner 2 µg/mL	≥ 1	0.964	–	0.939	–	–
[7], partner 2 µg/mL	–	–	0.933	–	0.914	0.739
[7], partner 4 µg/mL	–	–	0.956	–	0.906	0.746
[7], partner 8 µg/mL	–	–	0.876	–	0.784	0.567

[7], partner 16 µg/mL, one replicate
Details	fitness
first compound 1 µg/mL	0.748
first compound 2 µg/mL	0.643
first compound 4 µg/mL	0.254

CN(C)c1cc(NC(=O)CNC(C)(C)C)c(O)c2c1C[C@H]1C[C@H]3[C@H](N(C)C)C(O)=C(C(N)=O)C(=O)[C@@]3(O)C(O)=C1C2=O [Tigecycline] + CC1=C\[C@@H](O)CC(=O)Cc2nc(co2)C(=O)N2CCC=C2C(=O)O[C@H](C(C)C)[C@H](C)/C=C/C(=O)NC\C=C\1 [Virginiamycin M1]
Details	Bliss interaction score
[1]	-0.0387
[2]	-0.0271
[3]	-0.0538
[4]	0.109

fitness
Details	first compound 0.039 µg/mL	first compound 0.078 µg/mL	first compound 0.156 µg/mL	first compound 0.65 µg/mL	first compound 1.3 µg/mL	first compound 2.6 µg/mL
[5], partner 0.0625 µg/mL	0.977	0.987	0.96	–	–	–
[5], partner 0.125 µg/mL	0.95	0.938	0.954	–	–	–
[5], partner 0.25 µg/mL	0.997	0.989	0.953	–	–	–
[6], partner 0.0625 µg/mL	0.982	≥ 1	≥ 1	–	–	–
[6], partner 0.125 µg/mL	0.998	0.999	≥ 1	–	–	–
[6], partner 0.25 µg/mL	0.993	0.996	≥ 1	–	–	–
[7], partner 0.5 µg/mL	–	–	–	0.99	0.961	0.976
[7], partner 1 µg/mL	–	–	–	0.946	0.951	0.956
[7], partner 2 µg/mL	–	–	–	0.919	0.904	0.931

one replicate
Details	fitness
[5], first compound 0.125 µg/mL, partner 0.0625 µg/mL	≥ 1
[5], first compound 0.125 µg/mL, partner 0.125 µg/mL	≥ 1
[5], first compound 0.125 µg/mL, partner 0.25 µg/mL	≥ 1
[5], first compound 0.25 µg/mL, partner 0.0625 µg/mL	0.908
[5], first compound 0.25 µg/mL, partner 0.125 µg/mL	0.908
[5], first compound 0.25 µg/mL, partner 0.25 µg/mL	0.98
[5], first compound 0.5 µg/mL, partner 0.0625 µg/mL	0.959
[5], first compound 0.5 µg/mL, partner 0.125 µg/mL	0.903
[5], first compound 0.5 µg/mL, partner 0.25 µg/mL	0.925
[6], first compound 0.039 µg/mL, partner 0.5 µg/mL	0.817
[6], first compound 0.039 µg/mL, partner 1 µg/mL	0.983
[6], first compound 0.039 µg/mL, partner 2 µg/mL	0.768
[6], first compound 0.078 µg/mL, partner 0.5 µg/mL	0.817
[6], first compound 0.078 µg/mL, partner 1 µg/mL	0.877
[6], first compound 0.078 µg/mL, partner 2 µg/mL	0.742
[6], first compound 0.156 µg/mL, partner 0.5 µg/mL	0.86
[6], first compound 0.156 µg/mL, partner 1 µg/mL	0.872
[6], first compound 0.156 µg/mL, partner 2 µg/mL	0.745
[7], first compound 0.65 µg/mL, partner 0.15 µg/mL	0.982
[7], first compound 0.65 µg/mL, partner 0.3 µg/mL	0.92
[7], first compound 1.3 µg/mL, partner 0.15 µg/mL	0.963
[7], first compound 1.3 µg/mL, partner 0.3 µg/mL	0.914
[7], first compound 2.6 µg/mL, partner 0.15 µg/mL	0.928
[7], first compound 2.6 µg/mL, partner 0.3 µg/mL	0.86
